Assay results from patent US20220089662A1, “PREPRATION METHOD AND APPLICATION OF ANTI-INFLAMMATORY KIDNEY PROTECTING CLAM PEPTIDE” (Chenland Nutritionals Inc., priority 2020, published 2022).

How the values were obtained:
[1] = test system: spontaneously hypertensive rats (SHR); test: Protection of renal function in spontaneously hypertensive rats (SCr, SUA, BUN); assay type: in vivo, rat; settings: SHR serum, AC: captopril 10 mg/kg by gavage once a day for 4 weeks
Description: (§1) Spontaneously hypertensive rats were purchased from Beijing Weitong Lihua Experimental Animal Technology Co., Ltd.
(§2) Forty male spontaneously hypertensive rats (SHR), aged about 12 weeks and weighing about 270 G, were adaptively fed for one week. […] The rats in the AC group were given captopril 10 mg/kg by gavage, At the same time, the MC group was given the same volume of distilled water. The drug was administered once a day for 4 weeks. SCr, SUA and BUN were measured, and the data were analyzed by SPSS software.

[2] = test system: spontaneously hypertensive rats (SHR); test: Anti-inflammatory test after administration in spontaneously hypertensive rats (serum IL-8, TNF-α, hs-CRP); assay type: in vivo, rat
Description: Anti-inflammatory test after administration in spontaneously hypertensive rats is as follows.
as §1
as §2, with “at” for “At”, “Serum IL-8, TNF-α” for “SCr, SUA”, “hs-CRP” for “BUN”

[3] = AC: captopril 10 mg/kg by gavage once a day for 4 weeks

`C[C@H](CS)C(=O)N1CCC[C@H]1C(=O)O` [captopril] was tested, and the BUN [1] was 10.56 ± 3.17 mmol/L, the SCr [1] was 421.50 ± 101.20 µmol/L and the SUA [1] was 211.60 ± 39.89 mg/L. The TNF-α [2, 3] was 87.41 ± 19.19 pg/mL, the hs-CRP [2, 3] was 1.53 ± 0.41 µg/L and the “serum IL-8 level” value ([2]; positive drug group (captopril 10 mg/kg), 4 weeks) was 122 ± 12.15 pg/mL.
